Tests used:
Assay in all cases: Test C postemergence
Format in all cases: in vivo
Conditions in all cases: scale 0 to 100, 0 is no effect, 100 is complete control
[1] = tested on: Italian ryegrass (Lolium multiflorum)
From the text: (§1) Seeds of plant species selected from blackgrass (Alopecurus myosuroides), Italian ryegrass (Lolium multiflorum), winter wheat (Triticum aestivum), galium (catchweed bedstraw, Galium aparine), corn (Zea mays), large (Lg) crabgrass (Digitaria sanguinalis), giant foxtail (Setaria faberii), johnsongrass (Sorghum halepense), lambsquarters (Chenopodium album), morningglory (Ipomoea coccinea), yellow nutsedge (Cyperus esculentus), pigweed (Amaranthus retroflexus), ragweed (common ragweed, Ambrosia elatior), soybean (Glycine max), barnyardgrass (Echinochloa crus-galli), oilseed rape (Brassica napus), waterhemp (common waterhemp, Amaranthus rudis), and velvetleaf (Abutilon theophrasti) were planted into a blend of loam soil and sand and treated preemergence with test chemicals formulated in a non-phytotoxic solvent mixture which included a surfactant. At the same time, plants selected from these crop and weed species and also chickweed (common chickweed, Stellaria media), kochia (Kochia scoparia), and wild oat (Avena fatua), were planted in pots containing Sunshine Redi-Earth® planting medium comprising spaghnum peat moss, vermiculite, starter nutrients and dolomitic limestone and treated with postemergence applications of test chemicals formulated in the same manner. Plants ranged in height from 2 to 18 cm (1- to 4-leaf stage) for postemergence treatments. Treated plants and controls were maintained in a greenhouse for 13 to 15 days, after which time all species were compared to controls and visually evaluated. Plant response ratings, summarized in Table C, are based on a scale of 0 to 100 where 0 is no effect and 100 is complete control. A dash (-) response means no test result.

[2] = tested on: barnyardgrass (Echinochloa crus-galli)
From the text: as §1

[3] = tested on: blackgrass (Alopecurus myosuroides)
From the text: as §1

[4] = tested on: chickweed (common chickweed, Stellaria media)
From the text: as §1

corn (Zea mays) = tested on: corn (Zea mays)
From the text: as §1

[5] = tested on: galium (catchweed bedstraw, Galium aparine)
From the text: as §1

[6] = tested on: giant foxtail (Setaria faberii)
From the text: as §1

[7] = tested on: johnsongrass (Sorghum halepense)
From the text: as §1

kochia (Kochia scoparia) = tested on: kochia (Kochia scoparia)
From the text: as §1

[8] = tested on: large (Lg) crabgrass (Digitaria sanguinalis)
From the text: as §1

[9] = tested on: morningglory (Ipomoea coccinea)
From the text: as §1

[10] = tested on: oilseed rape (Brassica napus)
From the text: as §1

[11] = tested on: pigweed (Amaranthus retroflexus)
From the text: as §1

[12] = tested on: ragweed (common ragweed, Ambrosia elatior)
From the text: as §1

[13] = tested on: velvetleaf (Abutilon theophrasti)
From the text: as §1

[14] = tested on: waterhemp (common waterhemp, Amaranthus rudis)
From the text: as §1

[15] = tested on: winter wheat (Triticum aestivum)
From the text: as §1

[16] = tested on: yellow nutsedge (Cyperus esculentus)
From the text: as §1

Structure (SMILES): O=c1cccc(Oc2ncc(Cl)cn2)n1-c1ncc(Cl)cn1 [Compound 6]
- Plant response rating, Ryegrass, Italian ([1]; 16 g ai/ha): 0
- Plant response rating, Ryegrass, Italian ([1]; 31 g ai/ha): 0
- Plant response rating, Ryegrass, Italian ([1]; 62 g ai/ha): 0
- Plant response rating, Ryegrass, Italian ([1]; 125 g ai/ha): 0
- Plant response rating, Barnyardgrass ([2]; 16 g ai/ha): 5
- Plant response rating, Barnyardgrass ([2]; 31 g ai/ha): 5
- Plant response rating, Barnyardgrass ([2]; 62 g ai/ha): 5
- Plant response rating, Barnyardgrass ([2]; 125 g ai/ha): 10
- Plant response rating, Blackgrass ([3]; 16 g ai/ha): 0
- Plant response rating, Blackgrass ([3]; 31 g ai/ha): 0
- Plant response rating, Blackgrass ([3]; 62 g ai/ha): 5
- Plant response rating, Blackgrass ([3]; 125 g ai/ha): 5
- Plant response rating, Chickweed ([4]; 16 g ai/ha): 50
- Plant response rating, Chickweed ([4]; 31 g ai/ha): 55
- Plant response rating, Chickweed ([4]; 62 g ai/ha): 60
- Plant response rating, Chickweed ([4]; 125 g ai/ha): 55
- Plant response rating, Corn (corn (Zea mays); 16 g ai/ha): 5
- Plant response rating, Corn (corn (Zea mays); 31 g ai/ha): 10
- Plant response rating, Corn (corn (Zea mays); 62 g ai/ha): 10
- Plant response rating, Corn (corn (Zea mays); 125 g ai/ha): 20
- Plant response rating, Galium ([5]; 16 g ai/ha): 50
- Plant response rating, Galium ([5]; 31 g ai/ha): 60
- Plant response rating, Galium ([5]; 62 g ai/ha): 60
- Plant response rating, Galium ([5]; 125 g ai/ha): 80
- Plant response rating, Foxtail, Giant ([6]; 16 g ai/ha): 5
- Plant response rating, Foxtail, Giant ([6]; 31 g ai/ha): 5
- Plant response rating, Foxtail, Giant ([6]; 62 g ai/ha): 5
- Plant response rating, Foxtail, Giant ([6]; 125 g ai/ha): 10
- Plant response rating, Johnsongrass ([7]; 16 g ai/ha): 0
- Plant response rating, Johnsongrass ([7]; 31 g ai/ha): 5
- Plant response rating, Johnsongrass ([7]; 62 g ai/ha): 5
- Plant response rating, Johnsongrass ([7]; 125 g ai/ha): 5
- Plant response rating, Kochia (kochia (Kochia scoparia); 16 g ai/ha): 50
- Plant response rating, Kochia (kochia (Kochia scoparia); 31 g ai/ha): 60
- Plant response rating, Kochia (kochia (Kochia scoparia); 62 g ai/ha): 80
- Plant response rating, Kochia (kochia (Kochia scoparia); 125 g ai/ha): 85
- Plant response rating, Crabgrass, Large ([8]; 16 g ai/ha): 5
- Plant response rating, Crabgrass, Large ([8]; 31 g ai/ha): 15
- Plant response rating, Crabgrass, Large ([8]; 62 g ai/ha): 5
- Plant response rating, Crabgrass, Large ([8]; 125 g ai/ha): 20
- Plant response rating, Morningglory ([9]; 16 g ai/ha): 50
- Plant response rating, Morningglory ([9]; 31 g ai/ha): 75
- Plant response rating, Morningglory ([9]; 62 g ai/ha): 65
- Plant response rating, Morningglory ([9]; 125 g ai/ha): 80
- Plant response rating, Oilseed Rape ([10]; 16 g ai/ha): 5
- Plant response rating, Oilseed Rape ([10]; 31 g ai/ha): 15
- Plant response rating, Oilseed Rape ([10]; 62 g ai/ha): 20
- Plant response rating, Oilseed Rape ([10]; 125 g ai/ha): 10
- Plant response rating, Pigweed ([11]; 16 g ai/ha): 70
- Plant response rating, Pigweed ([11]; 31 g ai/ha): 70
- Plant response rating, Pigweed ([11]; 62 g ai/ha): 75
- Plant response rating, Pigweed ([11]; 125 g ai/ha): 85
- Plant response rating, Ragweed ([12]; 16 g ai/ha): 25
- Plant response rating, Ragweed ([12]; 31 g ai/ha): 45
- Plant response rating, Ragweed ([12]; 62 g ai/ha): 40
- Plant response rating, Ragweed ([12]; 125 g ai/ha): 70
- Plant response rating, Velvetleaf ([13]; 16 g ai/ha): 50
- Plant response rating, Velvetleaf ([13]; 31 g ai/ha): 65
- Plant response rating, Velvetleaf ([13]; 62 g ai/ha): 75
- Plant response rating, Velvetleaf ([13]; 125 g ai/ha): 75
- Plant response rating, Waterhemp ([14]; 16 g ai/ha): 60
- Plant response rating, Waterhemp ([14]; 31 g ai/ha): 75
- Plant response rating, Waterhemp ([14]; 62 g ai/ha): 70
- Plant response rating, Waterhemp ([14]; 125 g ai/ha): 70
- Plant response rating, Wheat ([15]; 16 g ai/ha): 0
- Plant response rating, Wheat ([15]; 31 g ai/ha): 0
- Plant response rating, Wheat ([15]; 62 g ai/ha): 0
- Plant response rating, Wheat ([15]; 125 g ai/ha): 0
- Plant response rating, Nutsedge, Yellow ([16]; 16 g ai/ha): 0
- Plant response rating, Nutsedge, Yellow ([16]; 31 g ai/ha): 5
- Plant response rating, Nutsedge, Yellow ([16]; 62 g ai/ha): 5
- Plant response rating, Nutsedge, Yellow ([16]; 125 g ai/ha): 5

Structure (SMILES): O=c1cccc(Oc2ncc(Cl)cn2)n1-c1ccc(C(F)(F)F)cn1 [Compound 7]
- Plant response rating, Ryegrass, Italian ([1]; 16 g ai/ha): 0
- Plant response rating, Ryegrass, Italian ([1]; 31 g ai/ha): 5
- Plant response rating, Ryegrass, Italian ([1]; 62 g ai/ha): 5
- Plant response rating, Ryegrass, Italian ([1]; 125 g ai/ha): 10
- Plant response rating, Barnyardgrass ([2]; 16 g ai/ha): 5
- Plant response rating, Barnyardgrass ([2]; 31 g ai/ha): 5
- Plant response rating, Barnyardgrass ([2]; 62 g ai/ha): 5
- Plant response rating, Barnyardgrass ([2]; 125 g ai/ha): 10
- Plant response rating, Blackgrass ([3]; 16 g ai/ha): 5
- Plant response rating, Blackgrass ([3]; 31 g ai/ha): 5
- Plant response rating, Blackgrass ([3]; 62 g ai/ha): 10
- Plant response rating, Blackgrass ([3]; 125 g ai/ha): 20
- Plant response rating, Chickweed ([4]; 16 g ai/ha): 0
- Plant response rating, Chickweed ([4]; 31 g ai/ha): 20
- Plant response rating, Chickweed ([4]; 62 g ai/ha): 35
- Plant response rating, Chickweed ([4]; 125 g ai/ha): 55
- Plant response rating, Corn (corn (Zea mays); 16 g ai/ha): 10
- Plant response rating, Corn (corn (Zea mays); 31 g ai/ha): 10
- Plant response rating, Corn (corn (Zea mays); 62 g ai/ha): 20
- Plant response rating, Corn (corn (Zea mays); 125 g ai/ha): 15
- Plant response rating, Galium ([5]; 16 g ai/ha): 45
- Plant response rating, Galium ([5]; 31 g ai/ha): 50
- Plant response rating, Galium ([5]; 62 g ai/ha): 60
- Plant response rating, Galium ([5]; 125 g ai/ha): 75
- Plant response rating, Foxtail, Giant ([6]; 16 g ai/ha): 10
- Plant response rating, Foxtail, Giant ([6]; 31 g ai/ha): 10
- Plant response rating, Foxtail, Giant ([6]; 62 g ai/ha): 15
- Plant response rating, Foxtail, Giant ([6]; 125 g ai/ha): 20
- Plant response rating, Johnsongrass ([7]; 16 g ai/ha): 5
- Plant response rating, Johnsongrass ([7]; 31 g ai/ha): 5
- Plant response rating, Johnsongrass ([7]; 62 g ai/ha): 10
- Plant response rating, Johnsongrass ([7]; 125 g ai/ha): 10
- Plant response rating, Kochia (kochia (Kochia scoparia); 16 g ai/ha): 10
- Plant response rating, Kochia (kochia (Kochia scoparia); 31 g ai/ha): 50
- Plant response rating, Kochia (kochia (Kochia scoparia); 62 g ai/ha): 70
- Plant response rating, Kochia (kochia (Kochia scoparia); 125 g ai/ha): 85
- Plant response rating, Crabgrass, Large ([8]; 16 g ai/ha): 10
- Plant response rating, Crabgrass, Large ([8]; 31 g ai/ha): 10
- Plant response rating, Crabgrass, Large ([8]; 62 g ai/ha): 15
- Plant response rating, Crabgrass, Large ([8]; 125 g ai/ha): 15
- Plant response rating, Morningglory ([9]; 16 g ai/ha): 20
- Plant response rating, Morningglory ([9]; 31 g ai/ha): 35
- Plant response rating, Morningglory ([9]; 62 g ai/ha): 40
- Plant response rating, Morningglory ([9]; 125 g ai/ha): 45
- Plant response rating, Oilseed Rape ([10]; 16 g ai/ha): 20
- Plant response rating, Oilseed Rape ([10]; 31 g ai/ha): 35
- Plant response rating, Oilseed Rape ([10]; 62 g ai/ha): 40
- Plant response rating, Oilseed Rape ([10]; 125 g ai/ha): 35
- Plant response rating, Pigweed ([11]; 16 g ai/ha): 70
- Plant response rating, Pigweed ([11]; 31 g ai/ha): 65
- Plant response rating, Pigweed ([11]; 62 g ai/ha): 85
- Plant response rating, Pigweed ([11]; 125 g ai/ha): 80
- Plant response rating, Ragweed ([12]; 16 g ai/ha): 25
- Plant response rating, Ragweed ([12]; 31 g ai/ha): 30
- Plant response rating, Ragweed ([12]; 62 g ai/ha): 35
- Plant response rating, Ragweed ([12]; 125 g ai/ha): 55
- Plant response rating, Velvetleaf ([13]; 16 g ai/ha): 25
- Plant response rating, Velvetleaf ([13]; 31 g ai/ha): 35
- Plant response rating, Velvetleaf ([13]; 62 g ai/ha): 40
- Plant response rating, Velvetleaf ([13]; 125 g ai/ha): 65
- Plant response rating, Waterhemp ([14]; 16 g ai/ha): 60
- Plant response rating, Waterhemp ([14]; 31 g ai/ha): 70
- Plant response rating, Waterhemp ([14]; 62 g ai/ha): 85
- Plant response rating, Waterhemp ([14]; 125 g ai/ha): 85
- Plant response rating, Wheat ([15]; 16 g ai/ha): 0
- Plant response rating, Wheat ([15]; 31 g ai/ha): 0
- Plant response rating, Wheat ([15]; 62 g ai/ha): 0
- Plant response rating, Wheat ([15]; 125 g ai/ha): 0
- Plant response rating, Nutsedge, Yellow ([16]; 16 g ai/ha): 0
- Plant response rating, Nutsedge, Yellow ([16]; 31 g ai/ha): 5
- Plant response rating, Nutsedge, Yellow ([16]; 62 g ai/ha): 5
- Plant response rating, Nutsedge, Yellow ([16]; 125 g ai/ha): 10

— patent US9963442B2, “Pyridones as herbicides” (E I DU PONT DE NEMOURS AND COMPANY, priority 2014, dated 2018)
